Results: PMC3774728, “Identification of the Plant Compound Geraniin as a Novel Hsp90 Inhibitor” (PLoS ONE, 2013)

Legend:
[1] = system: PBMC (human Peripheral Blood Mononuclear Cells); test: Cytotoxicity in PHA-stimulated proliferating PBMC; type: cell-based; conditions: 24 h, trypan blue, only at high doses
Protocol: To ensure logarithmic growth, cells were subcultured every two days. As control cells, human peripheral blood mononuclear cells (PBMC) were isolated from buffy coats of healthy donors (kindly provided by the Blood Center of the Hospital of Battipaglia, Salerno, Italy) by using standard Ficoll−Hypaque gradients. […] Proliferation of PBMC was induced by phytohemagglutinin (PHA) (10 µg mL^−1). […] Stock solutions of geraniin (50 mM in DMSO) and 17-AAG (10 mM in DMSO) were stored a −20°C in the dark and diluted just before addition to the sterile culture medium. In all the experiments, the final concentration of DMSO was 0.10% (v/v).
The number of viable cells was determined by using a [3–4,5-dimethyldiazol-2-yl]-2,5-diphenyl tetrazolium bromide (MTT, Sigma-Aldrich) conversion assay, according to the method described by Mosmann. Briefly, following the treatment, 25 µL of MTT (5 mg/mL in PBS) was added and the cells were incubated for additional 3 h at 37°C. Thereafter, cells were lysed and suspended with 100 µL of buffer containing 50% (v/v) N,N-dimethylformamide, 20% SDS (pH 4.5). The absorbance was measured with a microplate reader (Titertek multiskan MCC7340, LabSystems, Vienna, VA, USA) equipped with a 620 nm filter. Cell population growth inhibition was tested by cytometric counting (trypan blu exclusion).

Jurkat cells = test: Cell cycle and hypodiploidy by flow cytometry (PI), Jurkat; type: cell-based, human; conditions: 24 h, geraniin 0.7 µM, 17-AAG 10 µM
Protocol: Cell DNA content was measured by propidium iodide (PI) incorporation into permeabilized cells, as described by Nicoletti et al.. Briefly, the cells were harvested after geraniin or 17-AAG treatments were washed with cold PBS and incubated with a PI solution (0.1% sodium citrate, 0.1% Triton X-100 and 50 µg mL^−1 of prodium iodide, Sigma-Aldrich, 10 µg/ml Rnase A) for 30 min at room temperature. Data from 10.000 events per sample were collected by a FACScalibur flow cytometer (Becton Dickinson, San José, CA) and cellular debris was excluded from analysis by raising the forward scatter threshold. The percentage of cells in the sub G0/G1 phase, apoptotic fraction, was quantified using CellQuest software (Becton Dickinson). The distribution of cells in G0/G1, S, G2/M phases was determined using ModFit LT cell cycle analysis software (Becton Dickinson). Results were expressed as a mean ± SD of three experiments performed in triplicate.
Figure 6 Effects of geraniin and 17-AAG on cell cycle progression. Percentage of cell cycle stages was analyzed by flow cytometry, (A) PI-stained viable Jurkat cells treated with DMSO, 0.7 µM geraniin or 10 µM 17-AAG for 24 h.

[2] = molecular target: T1, Hsp90α chaperone activity (Homo sapiens, UniProt P07900); test: Citrate synthase thermal-induced aggregation assay (chaperone activity); type: biochemical; conditions: 0.075 µM CS, 0.075 µM Hsp90α, 0.3 µM ATP, four-fold molar excess (0.3 µM) compound, 43°C
T1 construct: purchased Assay Designs (Ann Arbor, MI, USA)
Protocol: Chaperone activity was evaluated by monitoring the thermal−induced aggregation of citrate synthase (CS) (0.075 µM), as reported elsewhere, in the absence or presence of a stoichiometric amount of Hsp90α and 0.3 µM ATP, and with or without a four−fold molar excess of each testing compound. Aggregation was initiated by unfolding CS incubating the protein in 40 mM HEPES–KOH, pH 7.5 at 43°C. Aggregation was monitored by measuring light scattering at right angles with the Perkin Elmer LS 55 fluorimeter in stirred and thermostatted quartz cells. Both the emission and excitation wavelengths were set at 500 nm, while the band–pass was 2 nm. Kinetics traces reported are the averages of two separate measurements.
Figure 3 Inhibition of Hsp90α activity. ATPase activity of the chaperone was evaluated in the presence of different concentrations of geraniin, 17-AAG and HA (A). Data are reported as the residual ATPase activity (%) compared to that observed for an untreated sample. Data are the mean of three independent experiments performed in triplicate and were analyzed by t test (HA vs testing compounds): The error bar represents the standard deviation of nine measurements, while * indicates significance at P<0.01. Aggregation kinetics of citrate synthase (CS) at 43°C determined by light scattering (B). […]

[3] = system: Hsp70, Hsp90 and Hsp90 client proteins in HeLa cells; test: Western blot of Hsp70 and Hsp90 client proteins, HeLa; type: cell-based, human; conditions: 24 h
Protocol: Treated cells were harvested and disrupted by freeze−thawing in RIPA buffer (50 mM Hepes, 10 mM EDTA, 150 mM NaCl, 1% NP-40, 0.5% sodium deoxycholate, 0.1% SDS, pH 7.4), supplemented with protease inhibitors cocktail (Sigma-Aldrich). Cell debris was removed by centrifugation at 4°C and the supernatant protein concentration was determined, according to the Bio-Rad Protein assay (Biorad Laboratories, CA, USA). Total proteins (30 µg) were separated by SDS-PAGE under denatured reducing conditions. Separated proteins were then transferred to nitrocellulose membranes and blocked for 3 h with a solution containing 3% BSA in 50 mM Tris, 200 mM NaCl, 0.1% Tween 20, before incubation at 4°C overnight with the different primary antibodies (diluted 1∶1000) against specific proteins. After washing, the membranes were incubated with an appropriate peroxidase-conjugate secondary antibodies at room temperature (1 h). Immunoreactive protein bands were detected by enhanced chemiluminescence reagent (ECL, Rockford, USA), according to the manufacturer’s instructions. Quantitative densitometry analyses were performed using a Gel Doc 2000 system (Biorad Laboratories, CA, USA).
Figure 7 Effect of geraniin on Hsp90 client protein levels. Equal amounts (30 µg) of whole-cell lysates were separated on SDS-PAGE and client proteins were visualized by western blot analysis using specific antibodies. Actin was used as loading control. Total cellular proteins were extracted 24 h after treatment with geraniin (2.5 µM, 5 µM and 10 µM) in Jurkat cells (A) or geraniin (1 µM, 0.7 µM and 0.5 µM) in HeLa cells (B), ctrl = control cells treated with DMSO). The blots shown are representative of three different experiments with similar results.

- effect on citrate synthase aggregation kinetics in the presence of Hsp90α [2]: the curve slope clearly increased
Structure (SMILES): O=C1O[C@H]2[C@@H]3OC(=O)c4cc(O)c(O)c(O)c4-c4c(cc(O)c(O)c4O)C(=O)OC[C@H]2O[C@@H](OC(=O)c2cc(O)c(O)c(O)c2)[C@@H]3OC(=O)c2cc(O)c(O)c3c2[C@@H]2C1=CC(=O)[C@](O)(O3)C2(O)O [Compound 54, geraniin]
- cytotoxic effects in control PBMC [1]: Minimal cytotoxic effects
- cell cycle arrest (Jurkat cells): G2/M arrest
- percentage of cells with hypodiploid nuclei (Jurkat cells): 9.75±1.02%
- Hsp70 expression increase ([3]; 10 µM geraniin): 2.7±0.09 fold
- level of Akt [3]: unaffected
- level of the client proteins c-Raf, pAkt and EGFR ([3]; IC50 and lower and higher concentrations): dose-dependent decrease
